These are literature values, as cited in PMC9271465 (ESMO Open, 2022).

The test system of one data set is EGFR-mutated NSCLC. Conditions: cited from earlier work.
A further data set concerns EGFR T790M+ NSCLC. Conditions: cited from earlier work.
The conditions of data set [1]: cited from earlier work.
The mark [2] stands for this setting: central nervous system activity.
The mark [3] stands for this setting: metastatic EGFR T790M+ NSCLC progressed during or after first-line EGFR-TKI.
[4] abbreviates: EGFR T790M+ advanced NSCLC after progression on prior EGFR-TKI.

Read-outs that look alike come from different tables or passages of the source.

Take `C#Cc1cccc(Nc2ncnc3cc4c(cc23)OCCOCCOCCO4)c1` [Icotinib]: in the data set with EGFR-mutated NSCLC, the “median OS” value was 30.5 months and the “median PFS” value was 11.2 months.

Take `C=CC(=O)Nc1cc(Nc2nccc(-c3cn(C)c4ccccc34)n2)c(OCC(F)(F)F)nc1N(C)CCN(C)C` [furmonertinib]: in the data set on EGFR T790M+ NSCLC (EGFR T790M-mutated NSCLC), the ORR is 74% and the “median PFS” value is 9.6 months.

Consider `C=CC(=O)Nc1cc(Nc2nccc(-n3cc(CN(C)C)c(-c4ccccc4)n3)n2)c(OC)cc1N1CCOCC1` [lazertinib], for which the “most common TRAEs” value in data set [1] is given as “rash/pruritis”.

Regarding `C=CC(=O)Nc1cc(Nc2nccc(-c3cn(C)c4ccccc34)n2)c(OC)cc1N(C)CCN(C)C` [osimertinib], in the data set with EGFR T790M+ NSCLC (setting [2]), the “intracranial DCR” value is listed as 92% and the “intracranial ORR” value is recorded as 54%. In addition, in the data set on EGFR T790M+ NSCLC (setting [3]), the ORR is on record as 61%-71 and the “median PFS” value was 9.6-15.2 months.

`C#Cc1cccc(Nc2ncnc3cc(OCCOC)c(OCCOC)cc23)c1` [erlotinib]: in the data set with EGFR-mutated NSCLC (EGFR-mutated NSCLC), the “median overall survival (OS)” value is on record as 19.3-30.5 months and the “median progression-free survival (PFS)” value was 9.7-10.8 months.

`Cc1cc(C(=O)Nc2nc3cccc(Cl)c3n2[C@@H]2CCCCN(C(=O)/C=C/CN(C)C)C2)ccn1` [nazartinib]: in data set [1], the “most common TRAEs” value was “rash/diarrhea”.

As to `C=CC(=O)Nc1cccc(Oc2nc(Nc3ccc(N4CCN(C)CC4)c(F)c3)nc3[nH]ccc23)c1` [abivertinib], the “most common TRAEs” value in data set [1] is recorded as “rash/diarrhea”.

As to `C=CC(=O)Nc1cc(Nc2nccc(-c3cn(C4CC4)c4ccccc34)n2)c(OC)cc1N(C)CCN(C)C` [almonertinib], in the data set on EGFR T790M+ NSCLC (setting [4]), the “intracranial ORR” value is given as 60.9% and the “updated ORR” value is listed as 68.9%. In addition, in the data set on EGFR T790M+ NSCLC (phase I trial), the DCR is given as 89%, the ORR is 50% and the PFS is 9.6 months.
